Assay results reported in ChEMBL document CHEMBL3608244, “Left-Hand Side Exploration of Novel Bacterial Topoisomerase Inhibitors to Improve Selectivity against hERG Binding” (ACS Med Chem Lett, 2015).
In brackets after ≈: the same amount, converted by molar mass.

How the values were obtained:
Type in all cases: functional
[1] = system: Mycobacterium tuberculosis; assay: Antimycobacterial activity against moxifloxacin resistant Mycobacterium tuberculosis H37Rv harboring DNA gyraseA G88N mutant incubated for 7 days by microdilution method
[2] = system: Mycobacterium tuberculosis; assay: Ratio of MIC for 6-((1-(2-(7-chloro-2-oxo-1,8-naphthyridin-1(2H)-yl)ethyl)piperidin-4-ylamino)methyl)-2H-pyrido[3,2-b][1,4]oxazin-3(4H)-one resistant Mycobacterium tuberculosis H37Rv harboring DNA gyraseA A74V mutant to MIC for Mycobacterium tuberculosis H37Rv ATCC 27294
[3] = system: Mycobacterium tuberculosis; assay: Ratio of MIC for 1-(2-(4-((5-chloro-6-methylpyridin-3-yl)methylamino)piperidin-1-yl)ethyl)-7-fluoro-1,5-naphthyridin-2(1H)-one resistant Mycobacterium tuberculosis H37Rv harboring DNA gyraseA D89N mutant to MIC for Mycobacterium tuberculosis H37Rv ATCC 27294
[4] = system: Mycobacterium tuberculosis; assay: Antimycobacterial activity against 1-(2-(4-((5-chloro-6-methylpyridin-3-yl)methylamino)piperidin-1-yl)ethyl)-7-fluoro-1,5-naphthyridin-2(1H)-one resistant Mycobacterium tuberculosis H37Rv harboring DNA gyraseA D89N mutant incubated for 7 days by microdilution method
[5] = system: Mycobacterium tuberculosis; assay: Antimycobacterial activity against 6-((1-(2-(7-chloro-2-oxo-1,8-naphthyridin-1(2H)-yl)ethyl)piperidin-4-ylamino)methyl)-2H-pyrido[3,2-b][1,4]oxazin-3(4H)-one resistant Mycobacterium tuberculosis H37Rv harboring DNA gyraseA A74V mutant incubated for 7 days by microdilution method

| Compound | MIC [1] [µM] | Ratio [2] | Ratio [3] | MIC [4] [µM] | MIC [5] [µM] |
| --- | --- | --- | --- | --- | --- |
| O=C1COc2ccc(CNC3CCN(CCn4c(=O)ccc5ccc(Oc6cncnc6)nc54)CC3)nc2N1 | 0.06 (≈ 0.0317 µg/mL) | >25 | >25 | >100 | 50 (≈ 26.4 µg/mL) |
| O=C1COc2ccc(CN[C@@H]3CCN(CCn4c(=O)ccc5ncc(Oc6cccnc6)cc54)C[C@@H]3F)nc2N1 | 0.39 (≈ 0.213 µg/mL) | – | – | >100 | 50 (≈ 27.3 µg/mL) |
| O=C1COc2ccc(CNC3CCN(CCn4c(=O)ccc5ccc(Cl)nc54)CC3)nc2N1 | <0.19 | – | – | >100 | 4 (≈ 1.88 µg/mL) |
| Cc1ncc(CNC2CCN(CCn3c(=O)ccc4ncc(F)cc43)CC2)cc1Cl | <0.19 | – | – | >100 | 2 (≈ 0.86 µg/mL) |
| O=C1COc2ccc(CNC3CCN(CCn4c(=O)ccc5ccc(Oc6cccnc6)nc54)CC3)nc2N1 | 0.78 (≈ 0.412 µg/mL) | >25 | >25 | >100 | 8 (≈ 4.22 µg/mL) |
| O=C(O)c1cn(C2CC2)c2cc(N3CCNCC3)c(F)cc2c1=O [CIPROFLOXACIN] | 8 (≈ 2.65 µg/mL) | – | – | 16 (≈ 5.3 µg/mL) | 0.5 (≈ 0.166 µg/mL) |
| NNC(=O)c1ccncc1 [ISONIAZID] | 0.06 (≈ 0.00823 µg/mL) | – | – | 0.03 (≈ 0.00411 µg/mL) | 0.06 (≈ 0.00823 µg/mL) |
| COc1c(N2C[C@@H]3CCCN[C@@H]3C2)c(F)cc2c(=O)c(C(=O)O)cn(C3CC3)c12 [MOXIFLOXACIN] | 4 (≈ 1.61 µg/mL) | – | – | 2 (≈ 0.803 µg/mL) | 0.25 (≈ 0.1 µg/mL) |
| CO[C@H]1/C=C/O[C@@]2(C)Oc3c(C)c(O)c4c(O)c(c(/C=N/N5CCN(C)CC5)c(O)c4c3C2=O)NC(=O)/C(C)=C\C=C\[C@H](C)[C@H](O)[C@@H](C)[C@@H](O)[C@@H](C)[C@H](OC(C)=O)[C@@H]1C [RIFAMPIN] | 0.008 (≈ 0.00658 µg/mL) | – | – | – | 0.008 (≈ 0.00658 µg/mL) |
